Data on five compounds can be found in BindingDB's records for patent US20250326769 (Nuvalent, 2025).

The target of assay [1] is ALK tyrosine kinase receptor [I1171N,D1203N] (UniProt Q9UM73, D1203N/I1171N). The experiment in a line: Biochemical Kinase Assay. On the procedure: (§1) First, 250 nL of compound dissolved in DMSO (100-fold of the desired concentration) was dispensed into a 384-well plate. A 12.5 μL substrate solution containing ATP (2 mM) and fluorogenic phosphorylation substrate AQT0101 ([…] for ALK and ROS, AssayQuant) or AQT0104 (26 μM for TRKB, AssayQuant) in buffer (50 mM HEPES pH 7.5, […], 0.5 mM EGTA, 10 mM MgCl2) was added and mixed thoroughly. Then, a 12.5 μL kinase solution containing ALK (1.5 nM, Carna, 08-518), ALK I1171N/D1203N (4 nM, SignalChem, custom-made), ROS1 (0.6 nM, Carma, 08-163), ROS1-G2032R (0.5 nM, SignalChem, R14-121BG), or TRKB-wt (1.5 nM, SignalChem, N17-11G) kinase domains in buffer ([…] pH 7.5, 0.01% Brij-[…], 0.4 mg/mL BSA, 0.5 mM EGTA, and 10 mM MgCl2) was added and mixed thoroughly. The plate was sealed and read by SpectraMax Paradigm at λ=485 nm every 2 minutes for 120 minutes at 30° C. Initial rates of reaction (v) were calculated from the change in fluorescence intensity over time during the initial, linear portion of the reaction.
ALK tyrosine kinase receptor [I1171N,D1203N], sequence (Q9UM73 19-1620 I1171N/D1203N limits assumed): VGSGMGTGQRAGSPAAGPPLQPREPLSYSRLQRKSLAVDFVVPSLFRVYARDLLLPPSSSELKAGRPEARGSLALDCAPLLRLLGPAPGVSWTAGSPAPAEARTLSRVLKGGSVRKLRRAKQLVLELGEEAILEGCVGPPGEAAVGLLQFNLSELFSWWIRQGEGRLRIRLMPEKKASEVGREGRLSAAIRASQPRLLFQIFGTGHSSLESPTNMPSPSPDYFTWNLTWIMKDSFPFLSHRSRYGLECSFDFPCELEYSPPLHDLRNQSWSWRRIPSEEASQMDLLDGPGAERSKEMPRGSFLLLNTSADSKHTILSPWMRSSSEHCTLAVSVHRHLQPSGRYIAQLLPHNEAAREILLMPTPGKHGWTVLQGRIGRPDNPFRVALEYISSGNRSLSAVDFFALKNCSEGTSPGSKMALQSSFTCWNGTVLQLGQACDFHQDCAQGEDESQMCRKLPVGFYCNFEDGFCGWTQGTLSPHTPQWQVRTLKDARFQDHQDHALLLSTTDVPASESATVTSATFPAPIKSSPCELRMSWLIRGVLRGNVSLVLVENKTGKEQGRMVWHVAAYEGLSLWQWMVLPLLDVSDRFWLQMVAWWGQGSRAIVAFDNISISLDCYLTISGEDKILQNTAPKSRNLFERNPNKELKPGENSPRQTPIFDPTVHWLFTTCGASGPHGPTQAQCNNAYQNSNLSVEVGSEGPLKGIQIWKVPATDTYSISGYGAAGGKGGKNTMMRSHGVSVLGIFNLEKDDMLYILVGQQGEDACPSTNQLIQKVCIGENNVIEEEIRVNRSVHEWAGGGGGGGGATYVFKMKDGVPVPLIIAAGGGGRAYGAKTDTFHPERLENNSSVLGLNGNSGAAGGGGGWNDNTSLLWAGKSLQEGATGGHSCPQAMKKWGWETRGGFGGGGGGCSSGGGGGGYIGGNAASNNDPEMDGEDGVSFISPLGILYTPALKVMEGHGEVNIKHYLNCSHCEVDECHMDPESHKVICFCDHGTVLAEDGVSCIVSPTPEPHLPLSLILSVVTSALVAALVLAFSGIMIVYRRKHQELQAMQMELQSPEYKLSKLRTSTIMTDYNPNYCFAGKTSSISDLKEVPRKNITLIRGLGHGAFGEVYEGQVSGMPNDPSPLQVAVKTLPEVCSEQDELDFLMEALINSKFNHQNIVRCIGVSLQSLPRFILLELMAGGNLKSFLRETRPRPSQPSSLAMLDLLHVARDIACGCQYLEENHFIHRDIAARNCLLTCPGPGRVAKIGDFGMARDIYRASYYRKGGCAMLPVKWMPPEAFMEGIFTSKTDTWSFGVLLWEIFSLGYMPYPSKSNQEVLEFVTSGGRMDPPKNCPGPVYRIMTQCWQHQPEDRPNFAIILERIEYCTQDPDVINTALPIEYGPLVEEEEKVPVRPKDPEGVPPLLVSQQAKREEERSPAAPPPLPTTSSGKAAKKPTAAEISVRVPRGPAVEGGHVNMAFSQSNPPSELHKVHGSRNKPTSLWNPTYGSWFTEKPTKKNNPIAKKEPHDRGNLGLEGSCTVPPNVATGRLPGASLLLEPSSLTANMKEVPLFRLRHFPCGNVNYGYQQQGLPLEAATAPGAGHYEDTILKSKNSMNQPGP

The target of assay [2] is BDNF/NT-3 growth factors receptor (Homo sapiens, UniProt Q16620). The experiment in a line: Biochemical Kinase Assay. Here is the method: as §1
BDNF/NT-3 growth factors receptor, sequence (Q16620 whole entry): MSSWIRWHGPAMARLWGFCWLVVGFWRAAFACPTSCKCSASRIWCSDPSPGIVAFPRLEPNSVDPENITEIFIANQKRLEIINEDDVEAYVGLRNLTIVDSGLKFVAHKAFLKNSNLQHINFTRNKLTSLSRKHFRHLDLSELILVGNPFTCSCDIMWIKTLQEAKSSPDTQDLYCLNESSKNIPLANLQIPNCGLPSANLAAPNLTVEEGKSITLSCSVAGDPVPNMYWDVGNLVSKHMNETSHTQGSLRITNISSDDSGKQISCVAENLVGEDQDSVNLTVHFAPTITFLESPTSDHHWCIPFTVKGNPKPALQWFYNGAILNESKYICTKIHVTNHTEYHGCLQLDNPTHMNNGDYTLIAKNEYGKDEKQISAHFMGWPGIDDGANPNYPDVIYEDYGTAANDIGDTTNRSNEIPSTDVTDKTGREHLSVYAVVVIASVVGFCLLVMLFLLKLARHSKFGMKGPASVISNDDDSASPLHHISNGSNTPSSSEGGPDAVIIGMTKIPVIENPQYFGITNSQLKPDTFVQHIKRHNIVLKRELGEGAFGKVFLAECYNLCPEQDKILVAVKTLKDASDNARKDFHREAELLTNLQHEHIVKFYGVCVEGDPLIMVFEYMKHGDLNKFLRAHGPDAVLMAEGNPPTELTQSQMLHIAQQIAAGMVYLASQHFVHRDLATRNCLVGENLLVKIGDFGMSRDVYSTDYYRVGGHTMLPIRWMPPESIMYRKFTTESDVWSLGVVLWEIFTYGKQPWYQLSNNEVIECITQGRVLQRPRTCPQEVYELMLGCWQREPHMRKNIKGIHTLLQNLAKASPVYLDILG

Broadly, the Ki is the dissociation constant of the complex between target and ligand, obtained from inhibition or displacement.

`C[C@H]1Oc2cc(cnc2N)-c2c(c(C(N)=O)nn2CC2CC2)Cc2cccnc2-c2ccc(F)cc21` [US20250326769, Example 6] yielded a Ki in assay [1] of less than 50 nM. Turning to `CCn1ncc2c1-c1cnc(N)c(c1)O[C@H](C)c1cc(F)ccc1-c1ncccc1O2` [US20250326769, Example 14], the Ki in assay [1] and in assay [2] was less than 50 nM throughout.

Consider `CC(C)N(C)C(=O)c1nn(CC2CC2)c2c1Cc1cn(C)nc1-c1ccc(F)cc1[C@@H](C)Oc1cc-2cnc1N` [US20250326769, Example 37], for which the Ki in assay [1] is less than 50 nM; in assay [2] it was more than 500 nM. As to `CCN(C)C(=O)c1nn(CC2CC2)c2c1Cc1cn(C)nc1-c1ccc(F)cc1[C@@H](C)Oc1cc-2cnc1N` [US20250326769, Example 38], the inhibition constant Ki in assay [1] was less than 50 nM.

As for `Cc1cc2n(n1)-c1c(F)cc(F)cc1[C@@H](C)Oc1cc(cnc1N)-c1c(c(C(=O)N(C)C)nn1CC1CC1)C2` [US20250326769, Example 44], the inhibition constant (Ki) in assay [1] is less than 50 nM.
